Source: paper PMC8869097, “Benzothiazole Derivatives as Multifunctional Antioxidant Agents for Skin Damage: Structure–Activity Relationship of a Scaffold Bearing a Five-Membered Ring System” (Antioxidants, 2022)

Experiments:
[1] = Filtering parameters (in vitro SPF, UVAPF, UVA/UVB, critical wavelength) of W/O formulations on PMMA plates; format: physicochemical
Procedure: The synthesized derivatives were incorporated at increasing concentrations (1%, 2% and 3%) in a topical W/O cosmetic standard formulation, to evaluate the filtering parameters, having the following ingredients composition.
INCI (International Nomenclature Cosmetic Ingredients): aqua, glycerin, Euxyl PE 9010, xanthan gum, ceteareth-12, ceteareth-20, sterearic acid, butylhydroxytoluene, myritol, PEG-7 glyceryl cocoate and 10% sodium solution.
Briefly, the protocol is to finger spread 32.5 mg of each formulation onto 25 cm2 PMMA plates. Each formulation was tested in triplicate by recording five measurements for each dish, after incubation in the dark for 15–30 min at room temperature. UV transmittance data were recorded in the range 290–400 nm using a UV-VIS spectrophotometer.
Blank plate, SPF, UVA-PF and Critical Wavelength were achieved through SPF Calculator Software (version 2.1), Shimadzu, Milan, Italy) as previously reported.
For the determination of the SPF in vitro of the samples in formulation it was decided to use an internal method, developed by us previously and based on the adaptation of the ISO 24443: 2012 [38]. The transmittance spectrum, processed with a specific software (SPF Calculator), made it possible to obtain the SPF, UVAPF, critical lambda and UVA/UVB ratio values of the formulations containing the selected active ingredients (Table 1).

HEK293T cells = assay: Cytotoxicity on non-cancerous control cells; format: cell-based; conditions: Homo sapiens, HEK-293T, read-out: IC50 Hek293
Procedure: A stock solution of the compounds (20 mM in DMSO) was prepared and stored at −18 °C. Then, the compounds were diluted in the cell culture medium and tested starting with the 100 µM concentration as the upper limit. The application of equation (6) allowed to obtain the values of IC50. C1 − [50 − N1%/N2% − N1%] − (C1 − C2),(6) where C1 is the concentration of the compound which inhibits cell proliferation by more than 50%; C2 is the concentration of the compound which inhibits cell proliferation below 50%; N1% represents the number of cells (expressed as a percentage of control without compound) obtained in the presence of C1 and N2% represents the number of cells (as a percentage of control without compound) obtained in the presence of C2.
Finally, the compounds of this series of benzothiazole derivatives were tested to evaluate their antiproliferative activity in vitro against human T-cell leukemia cell line (CEM), human cervical carcinoma cells (HeLa), human pancreas cancer cells (Mia Paca-2) and human melanoma cells (SK-Mel 5). Non-cancerous HEK293T cells (Normal Kidney Epithelial Cells) were chosen as a control for cytotoxicity and/or selectivity. The results obtained have been summarized in Table 5 (data shown only for the active compounds) and are expressed as IC50 values in μM. The selectivity index (SI) was also reported, determined by comparing the values of IC50 (μM) obtained on healthy cells (HEK 293) with that obtained on tumor cells (CEM, HeLa, Mia-Paca-2 and SK- Mel 5) (Table 5).

[2] = Photostability of formulations after solar simulator irradiation; format: physicochemical; conditions: for photostability of the filter: formulation on PMMA plate, photostable if residual % >= 80
Procedure: The method adopted to determine the photostability has been previously reported. Each plate was prepared as mentioned above and subjected to a solar irradiation quantified as the minimum UVA dose equivalent to an effective erythema radiant exposure. Transmittance of the sunscreen layer was recorded in the range of 290–400 nm before and after exposure to sunlight.
Equations (3) and (4) made it possible to derive the residual percentage of SPF in vitro (% SPFeff.) and UVA-PF (% UVA-PFeff.), respectively, which, if greater than or equal to 80, can categorize a filter as photostable. %SPFeff. = in vitro SPFafter/in vitro SPFbefore × 100(3) %UVA − PFeff. = UVA − PFafter/UVA − PFbefore × 100.(4)
Photostability is a crucial feature to delineate the efficacy and safety profile of a solar formulation. According to the criteria developed by Garoli et al., photodegradation was measured by recording the pre- and post-irradiation transmittance of PMMA plates with finger-coated formulations, applying the dose of UVA necessary to cause erythema.
The residual efficacy after exposure (%) indicates the loss of sun protection after sun exposure. Equations (3) and (4) made it possible to derive the residual percentage of SPF in vitro (% SPFeff.) and UVA-PF (% UVA-PFeff.), respectively, which, if greater than or equal to 80, make a filter to be categorized as photostable, according to regulation. It can be deduced from the data obtained that compounds 8a and 10a were photostable (Figure 2). […] Compound 9a containing furan in position 2 was photo-unstable with SPF and PF-UVA below 80%, and this could be attributable to photo-instability of its conjugated species. The order of photostability that emerged for the benzothiazole derivatives is: thiophene derivatives> pyrrole derivatives> furan derivatives.

Epidermophyton floccosum = assay: Antidermatophyte activity, plaque growth inhibition; format: cell-based, Epidermophyton floccosum var. floccosum CBS 358.93; conditions: 100 μg/mL, SDA, read-out: % Inhibition Growth E. floccosum
Procedure: The dermatophytes used in this study were Epidermophyton floccosum var. floccosum (Netherlands) CBS 358.93 strain, Trichophyton tonsurans (Netherlands) CBS 483.76 strain, Trichophyton mentagrophytes (Netherlands) CBS 160.66 strain, Microsporum canis (Iran) CBS 131,110 strain, and Microsporum gypseum (Iran) CBS 130,948 strain. All dermatophytes were maintained at 4 °C as agar slants on SDA. Candida albicans (ATCC 10231) was maintained at 4 °C on SDA plate.
The in vitro antifungal activity against the five selected dermatophytes was evaluated, as previously described, using the plaque growth inhibition method. All compounds were evaluated at the final concentration of 100 µg/mL. The percentages of growth inhibition according to Equation (5) were calculated as the average of three different experiments. I = [(C − T)/C] × 100%,(5) where I is the percentage value of growth inhibition, C is the measure of the diameter of the control circular mycelial inoculum (mm) and T is the extended diameter of the treated mycelial inoculum (mm).
All synthesized benzothiazole derivatives were evaluated to evaluate their in vitro antifungal activity against the five pathogenic dermatophytes that cause the most common dermatomycoses: Microsporum gypseum, Microsporum canis, Trichophyton mentagrophytes, Trichophyton tonsurans and Epidermophyton floccosum. All compounds were tested at a concentration of 100 µg/mL in DMSO, to evaluate the ability to inhibit the growth of dermatophyte cultures in Sabouraud Dextrose Agar (SDA). Briefly, room temperature incubation was performed and dermatophyte inhibition assessed by measuring the colony diameter at each disc for 7 days. The results are shown in Table 3 and were determined as the average of three different experiments.

UVA/UVB ([1]; 1% in W/O formulation)	λc ([1]; 1% in W/O formulation) [nm]	UVA/UVB ([1]; 2% in W/O formulation)	λc ([1]; 2% in W/O formulation) [nm]	UVA/UVB ([1]; 3% in W/O formulation)	λc ([1]; 3% in W/O formulation) [nm]	melting point [°C]	photostability of the filter [2]	residual percentage of SPF in vitro (% SPFeff.) ([2]; after irradiation)	residual percentage of UVA-PF (% UVA-PFeff.) ([2]; after irradiation)	SMILES	SPF ([1]; 1% in W/O formulation)	UVAPF ([1]; 1% in W/O formulation)	SPF ([1]; 2% in W/O formulation)	UVAPF ([1]; 2% in W/O formulation)	SPF ([1]; 3% in W/O formulation)	UVAPF ([1]; 3% in W/O formulation)	IC50 (HEK293T cells) [µM]	inhibition at 100 µg/mL (Epidermophyton floccosum) [%]	UVA protection profile ([1]; UVA-PF at least 1/3 of SPF to be efficient)
1.17	354	0.92	353	0.66	354	132	photostable			c1c[nH]c(-c2nc3ccccc3s2)c1 [Compound 8a, 2-(1H-Pyrrol-2-Yl)benzothiazole]	4.19	2.17	7.16	2.46	13.05	2.88	68 ± 14	26 ± 0.66	good UVA protection profile
0.70	341	0.73	357	0.75	364					c1c[nH]c(-c2nc3ccccc3[nH]2)c1 [Lead 10, reference compound]	2.44	1.16	2.72	1.32	3.06	1.54	31 ± 3	102 ± 4.92	

The remaining lines, values behind:

SMILES	UVA/UVB ([1]; 1% in W/O formulation)	λc ([1]; 1% in W/O formulation) [nm]	UVA/UVB ([1]; 2% in W/O formulation)	λc ([1]; 2% in W/O formulation) [nm]	UVA/UVB ([1]; 3% in W/O formulation)	λc ([1]; 3% in W/O formulation) [nm]	melting point [°C]	photostability of the filter [2]	residual percentage of SPF in vitro (% SPFeff.) ([2]; after irradiation)	residual percentage of UVA-PF (% UVA-PFeff.) ([2]; after irradiation)	SPF ([1]; 1% in W/O formulation)	UVAPF ([1]; 1% in W/O formulation)	SPF ([1]; 2% in W/O formulation)	UVAPF ([1]; 2% in W/O formulation)	SPF ([1]; 3% in W/O formulation)	UVAPF ([1]; 3% in W/O formulation)	IC50 (HEK293T cells) [µM]	inhibition at 100 µg/mL (Epidermophyton floccosum) [%]	UVA protection profile ([1]; UVA-PF at least 1/3 of SPF to be efficient)
c1csc(-c2nc3ccccc3s2)c1 [Compound 10a, 2-(Thiophen-2-Yl)benzothiazole]	0.69	347	0.62	347	0.45	349	99	photostable			4.86	1.60	5.14	1.60	10.73	2.02	> 100	54.1 ± 0.75	
NS(=O)(=O)c1ccc2nc(-c3cccs3)sc2c1 [Compound 10c, 2-(Thiophen-2-Yl)benzothiazole-6-Sulfonamide]							> 250										> 100	10.7 ± 0.31	
c1coc(-c2nc3ccccc3s2)c1 [Compound 9a, 2-(Furan-2-Yl)benzothiazole]	0.34	337	0.18	341	0.13	343	103	photo-unstable	below 80%	below 80%	6.42	1.26	14.18	1.60	20.23	1.50	> 100	68.85 ± 0.54	
